In patent US20050084505A1, “Utilization of ubiquinones for influencing the effect of histamine” (priority 2002, published 2005):

What was measured:
[1] = test system: prepared lung tissue and trachea pieces of guinea pigs; conditions: tissue not aerated, cited from earlier work
[2] = test system: Isolated, perfused and ventilated lungs from adult rats; assay: Isolated, perfused and ventilated rat lung, histamine-induced constriction
Method: Isolated, perfused and ventilated lungs from adult rats (280 to 330 g body weight) were injected with 50 pg of histamine per lung. After 2 to […], this caused constriction of the bronchial and pulmonary vessels with reduction of the lung extensibility.

[3] = upon the action of γ-globulin on lung tissue

In the case of `COC1=C(OC)C(=O)C(C/C=C(\C)CC/C=C(\C)CC/C=C(\C)CC/C=C(\C)CC/C=C(\C)CC/C=C(\C)CC/C=C(\C)CC/C=C(\C)CC/C=C(\C)CCC=C(C)C)=C(C)C1=O` [CoQ-10, 2,3-dimethoxy-5-methyl-6-decaprenyl-1,4-benzoquinone], the “contraction of lung tissue by added histamine” value ([1]; continuously administered) is listed as “increased”, the “secretion of SRS-A” value [1, 3] is listed as “reduced” and the secretion of histamines [1, 3] is listed as “reduced”. The “spontaneous vasoconstriction of the lung vessels” value ([2]; 2.7 ppm in the perfusate, compared with control perfusion (even below)) was “decreased” and the “delayed histamine reaction (constriction of the bronchial and pulmonary vessels with reduction of the lung extensibility)” value ([2]; previous addition of 2.7 ppm in the perfusate, 50 pg of histamine per lung, reaction after 2 to 3 hours) was “completely prevented”.
